Laboratory results published in paper PMC8668980, “Development of a versatile HPLC-based method to evaluate the activation status of small GTPases” (The Journal of Biological Chemistry, 2021).

How the values were obtained:
Flag-RHEB [1] = target: T1, Flag-RHEB (Homo sapiens, UniProt Q15382); test: IP-RP-HPLC of nucleotide co-purified with Flag protein from HeLa; format: cell-based; conditions: nucleotide loaded in cells; 5 mM then 1 mM MgCl2 washes
T1 construct: Flag-tagged, dox-inducible in HeLa, anti-Flag immunopurified

HRAS = target: T2, HRAS (Homo sapiens, UniProt P01112); test: as above; format: cell-based; conditions: nucleotide loaded in cells; 5 mM then 1 mM MgCl2 washes
T2 construct: Flag-tagged, dox-inducible in HeLa, anti-Flag immunopurified

DIRAS1 = target: T3, DIRAS1 (Homo sapiens, UniProt O95057); test: as above; format: cell-based; conditions: nucleotide loaded in cells; 5 mM then 1 mM MgCl2 washes
T3 construct: Flag-tagged, dox-inducible in HeLa, anti-Flag immunopurified
T3 sequence (O95057 1-195): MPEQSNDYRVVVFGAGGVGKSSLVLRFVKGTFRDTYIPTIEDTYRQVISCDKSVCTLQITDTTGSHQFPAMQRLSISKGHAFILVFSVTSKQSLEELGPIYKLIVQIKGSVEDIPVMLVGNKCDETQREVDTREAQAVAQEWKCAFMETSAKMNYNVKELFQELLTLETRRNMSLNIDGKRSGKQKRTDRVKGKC

GST-RHEB [2] = target: T4, GST-RHEB (Homo sapiens, UniProt Q15382); test: [3H]GDP-dissociation assay, filter binding; conditions: labelled compound; 5 μM [3H]GDP preload with 10 mM EDTA, chase 200 μM GTPγS; 5 mM MgCl2, pH 7.5, 30 °C
T4 construct: residues 1-180, N-terminal GST fusion (pCold GST) kept, E. coli, glutathione-Sepharose purified

GST-RHEB [3] = target: T5, GST-RHEB (Homo sapiens, UniProt Q15382, P37L); test: [3H]GDP-dissociation assay, filter binding; conditions: labelled compound; 5 μM [3H]GDP preload with 10 mM EDTA, chase 200 μM GTPγS; 5 mM MgCl2, pH 7.5, 30 °C
T5 construct: residues 1-180, N-terminal GST fusion (pCold GST) kept, E. coli, glutathione-Sepharose purified

DIRAS2 = target: T6, DIRAS2 (Homo sapiens, UniProt Q96HU8); test: IP-RP-HPLC of nucleotide co-purified with Flag protein from HeLa; format: cell-based; conditions: nucleotide loaded in cells; 5 mM then 1 mM MgCl2 washes
T6 construct: Flag-tagged, dox-inducible in HeLa, anti-Flag immunopurified
T6 sequence (Q96HU8 1-196): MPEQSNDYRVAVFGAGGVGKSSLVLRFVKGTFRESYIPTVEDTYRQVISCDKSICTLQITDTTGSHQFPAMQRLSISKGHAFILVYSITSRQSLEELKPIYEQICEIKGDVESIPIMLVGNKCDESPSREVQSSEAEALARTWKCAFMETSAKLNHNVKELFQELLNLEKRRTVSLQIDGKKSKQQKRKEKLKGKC

GST-RHEB [4] = target: T7, GST-RHEB (Homo sapiens, UniProt Q15382, S68P); test: single-turnover GTPase assay of bound GTP by IP-RP-HPLC; format: biochemical; conditions: Flag-TSC1/2 beads (GAP); 5 mM MgCl2, pH 7.5, 30 °C
T7 construct: residues 1-180, N-terminal GST fusion (pCold GST) kept, E. coli, glutathione-Sepharose purified

Flag-RHEB [5] = target: T8, Flag-RHEB (Homo sapiens, UniProt Q15382, S68P); test: IP-RP-HPLC of nucleotide co-purified with Flag protein from HeLa; format: cell-based; conditions: nucleotide loaded in cells; 5 mM then 1 mM MgCl2 washes
T8 construct: Flag-tagged, dox-inducible in HeLa, anti-Flag immunopurified

Flag-RHEB [6] = target: T9, Flag-RHEB (Homo sapiens, UniProt Q15382, Q64L); test: as above; format: cell-based; conditions: nucleotide loaded in cells; 5 mM then 1 mM MgCl2 washes
T9 construct: Flag-tagged, dox-inducible in HeLa, anti-Flag immunopurified

Flag-RHEB [7] = target: T10, Flag-RHEB (Homo sapiens, UniProt Q15382, P37L); test: as above; format: cell-based; conditions: nucleotide loaded in cells; 5 mM then 1 mM MgCl2 washes
T10 construct: Flag-tagged, dox-inducible in HeLa, anti-Flag immunopurified

GST-RHEB [8] = target: T4, GST-RHEB; test: […]GTPγS filter binding time course; conditions: labelled compound; 5 μM [35S]GTPγS, 5 mM MgCl2, pH 7.5, 30 °C

T4 sequence (Q15382 1-180): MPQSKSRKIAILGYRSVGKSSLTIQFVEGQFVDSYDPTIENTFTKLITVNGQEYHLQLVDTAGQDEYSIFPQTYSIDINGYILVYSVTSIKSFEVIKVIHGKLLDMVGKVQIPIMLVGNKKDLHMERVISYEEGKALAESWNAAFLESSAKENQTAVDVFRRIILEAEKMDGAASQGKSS
T2 sequence (P01112 2-186): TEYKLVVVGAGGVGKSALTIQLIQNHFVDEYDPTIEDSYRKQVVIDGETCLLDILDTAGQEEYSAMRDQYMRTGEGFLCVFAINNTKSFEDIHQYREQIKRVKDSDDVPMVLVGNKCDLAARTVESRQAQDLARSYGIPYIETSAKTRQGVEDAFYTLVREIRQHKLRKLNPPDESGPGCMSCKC
T9 sequence (Q15382 1-181 Q64L): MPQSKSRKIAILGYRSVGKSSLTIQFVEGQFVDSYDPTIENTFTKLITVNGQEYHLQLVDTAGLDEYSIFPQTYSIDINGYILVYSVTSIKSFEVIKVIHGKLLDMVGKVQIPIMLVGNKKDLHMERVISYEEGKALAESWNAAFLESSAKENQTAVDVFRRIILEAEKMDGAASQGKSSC
T10 sequence (Q15382 1-181 P37L): as the sequence (Q15382 1-181 Q64L) above, with P37L, L64Q counted along it
T8 sequence (Q15382 1-181 S68P): as the sequence (Q15382 1-181 Q64L) above, with L64Q, S68P counted along it
T7 sequence (Q15382 1-180 S68P): as the sequence (Q15382 1-180) above, with S68P counted along it
T1 sequence (Q15382 1-181): as the sequence (Q15382 1-181 Q64L) above, with L64Q counted along it
T5 sequence (Q15382 1-180 P37L): as the sequence (Q15382 1-180) above, with P37L counted along it

Compound | IP-RP-HPLC of nucleotide co-purified with Flag protein from HeLa (Flag-RHEB [1]) | IP-RP-HPLC of nucleotide co-purified with Flag protein from HeLa (HRAS) | IP-RP-HPLC of nucleotide co-purified with Flag protein from HeLa (DIRAS1) | [3H]GDP-dissociation assay, filter binding (GST-RHEB [2]) | [3H]GDP-dissociation assay, filter binding (GST-RHEB [3]) | IP-RP-HPLC of nucleotide co-purified with Flag protein from HeLa (DIRAS2) | single-turnover GTPase assay of bound GTP by IP-RP-HPLC (GST-RHEB [4]) | IP-RP-HPLC of nucleotide co-purified with Flag protein from HeLa (Flag-RHEB [5]) | IP-RP-HPLC of nucleotide co-purified with Flag protein from HeLa (Flag-RHEB [6]) | IP-RP-HPLC of nucleotide co-purified with Flag protein from HeLa (Flag-RHEB [7]) | [35S]GTPγS filter binding time course (GST-RHEB [8])
Nc1nc2c(ncn2[C@@H]2O[C@H](COP(=O)(O)OP(=O)(O)O)[C@@H](O)[C@H]2O)c(=O)[nH]1 [GDP] | Representative chromatogram of guanine nucleotides bound to Flag-RHEB/WT in HeLa cells | We could reproducibly quantify the amount of GDP and GTP bound to each small GTPase | We could reproducibly quantify the amount of GDP and GTP bound to each small GTPase | the dissociation rates of the WT and P37L proteins were comparable | the dissociation rates of the WT and P37L proteins were comparable | We could reproducibly quantify the amount of GDP and GTP bound to each small GTPase |  |  |  |  | 
Nc1nc2c(ncn2[C@@H]2O[C@H](COP(=O)(O)OP(=O)(O)OP(=O)(O)O)[C@@H](O)[C@H]2O)c(=O)[nH]1 [GTP] |  | We could reproducibly quantify the amount of GDP and GTP bound to each small GTPase | We could reproducibly quantify the amount of GDP and GTP bound to each small GTPase |  |  | We could reproducibly quantify the amount of GDP and GTP bound to each small GTPase | it weakly but significantly promoted that of GST-RHEB/S68P | both RHEB/P37L and RHEB/S68P showed increases in their GTP-bound forms | marked increase in the ratio of the GTP-bound form of RHEB/Q64L compared with RHEB/WT | both RHEB/P37L and RHEB/S68P showed increases in their GTP-bound forms | 
Nc1nc2c(ncn2[C@@H]2O[C@H](COP(=O)(O)OP(=O)(O)OP(O)(O)=S)[C@@H](O)[C@H]2O)c(=O)[nH]1 [GTPγS] |  |  |  |  |  |  |  |  |  |  | GTPγS-binding rate of RHEB/S68P was enhanced compared with that of RHEB/WT and RHEB/P37L
